{"source": "ChEMBL document CHEMBL1201862", "about": "“PubChem BioAssay data set” (2004)", "assay_in_all_cases": "NCI tumour cell line growth inhibition, 48 h", "key": {"BT-549": {"tested_on": "BT-549"}, "DMS-114": {"tested_on": "DMS-114"}, "DMS-273": {"tested_on": "DMS-273"}, "HOP-18": {"tested_on": "HOP-18"}, "LXFL 529": {"tested_on": "LXFL 529"}, "M19-MEL": {"tested_on": "M19-MEL"}, "XF498": {"tested_on": "XF498"}, "KM-20L2": {"tested_on": "KM-20L2"}}, "note": "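Growth conditions: 96-well plates. Treatment: test compound, 48 hours, 5 concentrations. Analysis: linear interpolation between bracketing concentrations; unreached endpoints set to highest concentration. GI50: concentration for 50% inhibition of growth.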 Activity calls are given as the source filed them. No stated cut-off is given here; in the data, active = GI50 up to about 1.1 µM and inactive = higher."}
{"compound": "O=C1C(=O)c2c(oc(=O)c3ccccc23)-c2ccccc21", "values": [{"measurement": "GI50", "setting": "BT-549", "result": "11.7 µM (inactive)"}]}
{"compound": "NC(=O)C(=O)N/N=C(\\CC1(O)C(=O)Nc2ccccc21)c1ccc2ccccc2c1", "note": "(configuration not stated)", "values": [{"measurement": "GI50", "setting": "DMS-114", "result": "21.3 µM (inactive)"}, {"measurement": "GI50", "setting": "DMS-273", "result": "28.2 µM (inactive)"}, {"measurement": "GI50", "setting": "HOP-18", "result": "46.3 µM (inactive)"}, {"measurement": "GI50", "setting": "LXFL 529", "result": "31.5 µM (inactive)"}, {"measurement": "GI50", "setting": "M19-MEL", "result": "25.2 µM (inactive)"}, {"measurement": "GI50", "setting": "XF498", "result": "30.5 µM (inactive)"}]}
{"compound": "CC1C=C[C@H](Sc2ccccc2)CC[C@@]1(C)O", "note": "(some centres not stated)", "values": [{"measurement": "GI50", "setting": "DMS-114", "result": "55.8 µM (inactive)"}, {"measurement": "GI50", "setting": "KM-20L2", "result": "> 100 µM (inactive)"}, {"measurement": "GI50", "setting": "LXFL 529", "result": "99.3 µM (inactive)"}, {"measurement": "GI50", "setting": "M19-MEL", "result": "> 100 µM (inactive)"}]}
{"compound": "CC(=O)C1(/N=N/c2ccc(S(N)(=O)=O)cc2)CCOC1=O", "note": "(configuration not stated)", "values": [{"measurement": "GI50", "setting": "BT-549", "result": "> 100 µM (inactive)"}]}
{"compound": "COc1ccc2cc(CNCCCCCCNCc3ccc4cc(OC)ccc4c3)ccc2c1", "values": [{"measurement": "GI50", "setting": "BT-549", "result": "1.72 µM (inactive)"}]}
{"compound": "CC(=O)O[C@]12CCCCC1C1(O)C(O)CCCC[C@H]12", "note": "(some centres not stated)", "values": [{"measurement": "GI50", "setting": "DMS-114", "result": "> 100 µM (inactive)"}, {"measurement": "GI50", "setting": "DMS-273", "result": "> 100 µM (inactive)"}, {"measurement": "GI50", "setting": "HOP-18", "result": "> 100 µM (inactive)"}, {"measurement": "GI50", "setting": "KM-20L2", "result": "> 100 µM (inactive)"}, {"measurement": "GI50", "setting": "LXFL 529", "result": "> 100 µM (inactive)"}, {"measurement": "GI50", "setting": "M19-MEL", "result": "> 100 µM (inactive)"}]}
{"compound": "NC(CCCC(N)P(=O)(O)c1ccccc1)P(=O)(O)c1ccccc1", "note": "(configuration not stated)", "values": [{"measurement": "GI50", "setting": "DMS-114", "result": "> 261 µM (inactive)"}, {"measurement": "GI50", "setting": "DMS-273", "result": "> 261 µM (inactive)"}, {"measurement": "GI50", "setting": "HOP-18", "result": "> 261 µM (inactive)"}, {"measurement": "GI50", "setting": "KM-20L2", "result": "> 261 µM (inactive)"}, {"measurement": "GI50", "setting": "LXFL 529", "result": "> 261 µM (inactive)"}, {"measurement": "GI50", "setting": "M19-MEL", "result": "> 261 µM (inactive)"}, {"measurement": "GI50", "setting": "XF498", "result": "> 261 µM (inactive)"}]}
{"compound": "Cc1ccc2c(c1C)C(=O)/C(=C/c1ccccc1C(=O)O)C2", "values": [{"measurement": "GI50", "setting": "BT-549", "result": "20.7 µM (inactive)"}]}
{"compound": "CC(ON1[C@](C)(c2ccccc2)CC[C@@]1(C)c1ccccc1)c1ccccc1", "note": "(some centres not stated)", "values": [{"measurement": "GI50", "setting": "BT-549", "result": "13.4 µM (inactive)"}]}
{"compound": "CC1OC(=O)C(O)=C1O", "note": "(configuration not stated)", "values": [{"measurement": "GI50", "setting": "DMS-273", "result": "> 100 µM (inactive)"}, {"measurement": "GI50", "setting": "HOP-18", "result": "> 100 µM (inactive)"}, {"measurement": "GI50", "setting": "KM-20L2", "result": "> 100 µM (inactive)"}, {"measurement": "GI50", "setting": "LXFL 529", "result": "> 100 µM (inactive)"}, {"measurement": "GI50", "setting": "M19-MEL", "result": "> 100 µM (inactive)"}, {"measurement": "GI50", "setting": "XF498", "result": "> 100 µM (inactive)"}]}
{"compound": "CCN1CCCc2cc3c(C(F)(F)F)cc(=O)oc3cc21", "values": [{"measurement": "GI50", "setting": "BT-549", "result": "58.2 µM (inactive)"}]}
{"compound": "CC1(C)N=C(N)N=C(N)N1c1ccc(CCCCc2ccc(S(=O)(=O)F)cc2Cl)c(Cl)c1", "values": [{"measurement": "GI50", "setting": "BT-549", "result": "5.26 µM (inactive)"}, {"measurement": "GI50", "setting": "DMS-114", "result": "0.458 µM (active)"}, {"measurement": "GI50", "setting": "DMS-273", "result": "0.352 µM (active)"}, {"measurement": "GI50", "setting": "HOP-18", "result": "53.7 µM (inactive)"}, {"measurement": "GI50", "setting": "KM-20L2", "result": "6.76 µM (inactive)"}, {"measurement": "GI50", "setting": "XF498", "result": "1.49 µM (inactive)"}]}
{"compound": "O=C(CCCl)NN=C1NCCCN1", "values": [{"measurement": "GI50", "setting": "BT-549", "result": "> 100 µM (inactive)"}]}
{"compound": "Cc1ccc(C2[C@H]3C(=O)N(c4ccc(Cc5ccc(N6C(=O)[C@@H]7ON(c8ccccc8)C(c8ccc(C)cc8)[C@@H]7C6=O)cc5)cc4)C(=O)[C@H]3ON2c2ccccc2)cc1", "note": "(some centres not stated)", "values": [{"measurement": "GI50", "setting": "DMS-114", "result": "> 100 µM (inactive)"}, {"measurement": "GI50", "setting": "DMS-273", "result": "> 100 µM (inactive)"}, {"measurement": "GI50", "setting": "HOP-18", "result": "> 100 µM (inactive)"}, {"measurement": "GI50", "setting": "KM-20L2", "result": "> 100 µM (inactive)"}, {"measurement": "GI50", "setting": "LXFL 529", "result": "> 100 µM (inactive)"}, {"measurement": "GI50", "setting": "M19-MEL", "result": "> 100 µM (inactive)"}, {"measurement": "GI50", "setting": "XF498", "result": "> 100 µM (inactive)"}]}
{"compound": "CCOC(=O)/C(=C/c1ccc(N(C)C)cc1)N(CC)CC", "values": [{"measurement": "GI50", "setting": "DMS-114", "result": "54 µM (inactive)"}, {"measurement": "GI50", "setting": "KM-20L2", "result": "> 100 µM (inactive)"}, {"measurement": "GI50", "setting": "LXFL 529", "result": "34.6 µM (inactive)"}, {"measurement": "GI50", "setting": "M19-MEL", "result": "24.6 µM (inactive)"}, {"measurement": "GI50", "setting": "XF498", "result": "> 100 µM (inactive)"}]}
{"compound": "NC(=O)c1[nH]nc(C2OC(CO)C(O)C2O)c1O", "note": "(configuration not stated)", "values": [{"measurement": "GI50", "setting": "BT-549", "result": "182 µM (inactive)"}, {"measurement": "GI50", "setting": "DMS-114", "result": "19.9 µM (inactive)"}, {"measurement": "GI50", "setting": "DMS-273", "result": "0.713 µM (active)"}, {"measurement": "GI50", "setting": "HOP-18", "result": "43 µM (inactive)"}, {"measurement": "GI50", "setting": "KM-20L2", "result": "2.76 µM (inactive)"}, {"measurement": "GI50", "setting": "M19-MEL", "result": "13.2 µM (inactive)"}, {"measurement": "GI50", "setting": "XF498", "result": "71.9 µM (inactive)"}]}
{"compound": "O=c1c2ccccc2n2n1Cc1ccccc1C2", "values": [{"measurement": "GI50", "setting": "BT-549", "result": "> 100 µM (inactive)"}]}
{"compound": "C=CCCC(C)N(C(=O)OC(C)(C)C)S(=O)(=O)c1ccc(C)cc1", "note": "(configuration not stated)", "values": [{"measurement": "GI50", "setting": "DMS-273", "result": "> 100 µM (inactive)"}, {"measurement": "GI50", "setting": "KM-20L2", "result": "> 100 µM (inactive)"}, {"measurement": "GI50", "setting": "LXFL 529", "result": "> 100 µM (inactive)"}, {"measurement": "GI50", "setting": "XF498", "result": "> 100 µM (inactive)"}]}
{"compound": "CC(=O)OC12C=CC(=O)N1c1ccccc1C(=O)O2", "note": "(configuration not stated)", "values": [{"measurement": "GI50", "setting": "DMS-273", "result": "> 100 µM (inactive)"}, {"measurement": "GI50", "setting": "HOP-18", "result": "> 100 µM (inactive)"}, {"measurement": "GI50", "setting": "KM-20L2", "result": "> 100 µM (inactive)"}, {"measurement": "GI50", "setting": "LXFL 529", "result": "> 100 µM (inactive)"}, {"measurement": "GI50", "setting": "M19-MEL", "result": "> 100 µM (inactive)"}, {"measurement": "GI50", "setting": "XF498", "result": "> 100 µM (inactive)"}]}
{"compound": "COC(=O)C1C(=O)O[C@@H](c2ccc(OC)cc2OC)C1C(=O)OC", "note": "(some centres not stated)", "values": [{"measurement": "GI50", "setting": "DMS-114", "result": "> 100 µM (inactive)"}, {"measurement": "GI50", "setting": "DMS-273", "result": "> 100 µM (inactive)"}, {"measurement": "GI50", "setting": "HOP-18", "result": "> 100 µM (inactive)"}, {"measurement": "GI50", "setting": "KM-20L2", "result": "> 100 µM (inactive)"}, {"measurement": "GI50", "setting": "LXFL 529", "result": "> 100 µM (inactive)"}, {"measurement": "GI50", "setting": "M19-MEL", "result": "> 100 µM (inactive)"}, {"measurement": "GI50", "setting": "XF498", "result": "> 100 µM (inactive)"}]}
{"compound": "C=C(C)OCOCCOC", "values": [{"measurement": "GI50", "setting": "BT-549", "result": "> 100 µM (inactive)"}]}
{"compound": "CC(=O)Nc1ccc(S(=O)(=O)N=S(C)C)cc1", "values": [{"measurement": "GI50", "setting": "BT-549", "result": "> 100 µM (inactive)"}]}
{"compound": "CCOC(=O)C1=COC(C)(C)CC1=O", "values": [{"measurement": "GI50", "setting": "BT-549", "result": "> 100 µM (inactive)"}]}
{"compound": "O=C1C(=O)C2(CC1S(=O)(=O)c1ccccc1)c1ccccc1-c1ccccc12", "note": "(configuration not stated)", "values": [{"measurement": "GI50", "setting": "DMS-114", "result": "22 µM (inactive)"}, {"measurement": "GI50", "setting": "DMS-273", "result": "19.5 µM (inactive)"}, {"measurement": "GI50", "setting": "HOP-18", "result": "> 10 µM (inactive)"}, {"measurement": "GI50", "setting": "KM-20L2", "result": "44 µM (inactive)"}, {"measurement": "GI50", "setting": "LXFL 529", "result": "16.3 µM (inactive)"}]}
